This experiment has as its system EGFR-mutated locally advanced or metastatic NSCLC. Nature of the experiment: MARIPOSA Phase 3, extracranial progression-free survival by BICR. Format: in vivo, human. Particulars: CNS-only first progression censored. From the text:
The efficacy population included all patients who had undergone randomization. Extracranial progression-free survival was defined as time from randomization to disease progression (detected by extracranial scans) or death. If first progression was detected solely in the CNS, these patients were censored at the time of CNS disease progression. The dashed lines indicate the median extracranial progression-free survival in the two groups; tick marks indicate censoring of data. 95% CI widths have not been adjusted for multiplicity and cannot be used to infer definitive treatment effects. CNS denotes central nervous system. Since MARIPOSA performed serial brain imaging, a sensitivity analysis was conducted censoring CNS-only, first progression events.

In the case of `C=CC(=O)Nc1cc(Nc2nccc(-c3cn(C)c4ccccc34)n2)c(OC)cc1N(C)CCN(C)C` [Osimertinib], the “Median extracranial progression-free survival (95% CI)” value came to 18.4 months.
